Data: article PMC11211441, “Distributable, metabolic PET reporting of tuberculosis” (Nature Communications, 2024)

What was measured:
[1] = tested on: mammalian (porcine) trehalase; assay: Trehalase degradation assay; assay type: in vitro ADME; details: 0.3 units/mL trehalase, 10 mM substrate
Experimental: The metabolic stabilities of the remaining three analogs, [^18F]FDT, 4-epi-[^18F]FDT and 6-[^18F]FDT were tested. Although, human trehalose-degrading trehalase activity is low and restricted primarily to the brush-border of the kidney where it is thought to be GPI-anchored[28],[32], it can be elevated in some diseases, therefore we also tested degradation of the analogs in vitro using high concentrations of mammalian (porcine) trehalase (0.3 units/mL, 10 mM substrate, Fig. S5). […]
Figure S5. Trehalase Assays.
Substrates were prepared to a final concentration of 10 mM in 0.05 M citric acid, pH 5.7 including trehalase stock solution (0.3 units/mL). The reaction mixture was incubated at 37 °C for 60 minutes, and then quenched with an equal volume of 0.1 M Tris, pH 7.5. Released glucose was measured with glucose assay kit (see Methods).

[2] = [19F]FDT clearance and in vivo stability in marmosets (plasma LC-MS, 19F NMR); parameters: species or system common marmosets; details: marmosets (n = 3), LC-MS and 19F-NMR
Experimental: In order to determine [^19F]FDT metabolism in vivo, we assessed concentration vs time in two mammalian species: common marmosets and C57BL/6 mice. For marmosets weighing between 290.3–340.3 g, 20 mg of sterile-filtered FDT in PBS was injected IV (n = 3) and ~200 μL blood samples were taken from the femoral vein at 0 min, 5 min, 30 min, 60 min, 90 min and 180 min post injection. Samples were spun (4000 rcf for 10 mins at room temp) to separate red cell mass from plasma. Plasma portion was separated and stored at −80 °C for further analysis. Similarly, mice weighing from 18.7–20.5 g were injected (n = 5) with 5 mg of filter-sterilized FDT solution dissolved in PBS solution, pH 7.4. Mandibular blood samples were taken at 2 min, 15 min, 30 min and 45 min post injection. For the last sample in each mouse, the animal was bled out to get maximum sample for NMR analysis. Final urine samples were collected in 3 out of 5 mice through free catch. Blood samples were centrifuged (6500 rcf for 4 mins at room temp) to separate red cell mass from plasma, and plasma was separated and stored at −80 °C prior to analyzes.
Plasma samples from −80 °C were thawed on ice and mixed with 80% acetonitrile to precipitate plasma proteins and other biomolecules. Samples were centrifuged at 10,000 g, 4 °C for 10 min.
Figure S37. [19F]FDT Clearance and In Vivo Stability in Non-human Primates […]
(§1) A, B) 20 mg [19F]FDT was injected into marmosets (A, n=3 biological replicates, each measured in duplicate) and 5 mg FDT injected into mice (B, n=5 biological replicates, each measured in triplicate). […]
marmosets (A) and mice (B).
[19F]FDG was detected, consistent with the only low levels of metabolism seen with [18F]FDT in rabbits (see Figure S3G). C-F) We further analyzed the potential degradation of FDT into FDG by 19F NMR spectroscopy in marmoset plasma (C) sample from 5 min time point, mouse plasma (D) sample from 30 min time point and mouse urine samples from 30 min (E) and 45 min (F) time points, respectively. In all these samples only [19F]FDT was observed (d -201.2). The data points are average values from three replicates with error bars ± SD.
(1 picture or pasted object on this page, not shown here)

[3] = [19F]FDT in vivo stability in mice (plasma/urine LC-MS, 19F NMR); details: mice (n = 5), LC-MS and 19F-NMR
Experimental: For initial in vivo study, six white mice, CD1, male, weighing between 22–26 grams, were used. Two concentrations of [^19F]FDT (500 μM and 50 μM, final concentration in the blood) were injected into the mice, through the tail vein injection. Prior to injection, each mouse was pre-bled (100 μL) and control samples were obtained. […] Samples were spun at 13000 rpm (15871 x g) for 10 min and the supernatant (plasma) was used for further analysis. 200 μL of plasma sample was transferred into fresh 1.5 mL Eppendorf tube and diluted with equal amount of acetonitrile to precipitate out blood plasma protein and other macromolecules. Samples were further spun at 13000 rpm (15871 x g) for 5 min.
In order to determine [^19F]FDT metabolism in vivo, we assessed concentration vs time in two mammalian species: common marmosets and C57BL/6 mice. For marmosets weighing between 290.3–340.3 g, 20 mg of sterile-filtered FDT in PBS was injected IV (n = 3) and ~200 μL blood samples were taken from the femoral vein at 0 min, 5 min, 30 min, 60 min, 90 min and 180 min post injection. […]
as §1
[19F]FDG was detected, consistent with the only low levels of metabolism seen with [18F]FDT in rabbits (see Figure S3G). […]

[4] = Human microsomal stability assay; details: human liver microsomes, 3 µM, 80 min
Experimental: Microsomal stability assay was carried out as described previously. In brief, 10 x reduced nicotinamide adenine dinucleotide phosphate (NADPH)-regenerating system was freshly prepared by dissolving 37.2 mg glucose-6-phosphate (Sigma) in 1 mL of 100 mM potassium phosphate buffer, 39.8 mg nicotinamide adenine dinucleotide phosphate (NADP, Sigma) in 1 mL of potassium phosphate buffer, 11.5 U glucose-6-phosphate dehydrogenase (Thermo) in 1 mL of potassium phosphate buffer and 26.8 mg MgCl2.6H2O (Sigma) in 1 mL of distilled water. All these solutions were combined and kept on ice. […] After 5 min, 18 µL of NADPH-regenerating system was added to initiate reaction. Immediately after adding the NADPH regenerating system, 50 µL, 0 min time point sample was taken and quenched with equal volume of ice-cold methanol. Similarly further samples were taken at 10 min, 30 min, 60 min, 90 min and 120 min. Samples were centrifuged at 10,000 g at 4 °C for 10 min. […] After incubating the reaction mix at 37 °C for 5 min, 36 µL of NADPH regenerating system was added to initiate the reaction. 50 µL samples were taken at 0 min, 2.5 min, 5 min, 10 min, 20 min, 40 min and 80 min and reactions were quenched by adding equal amount of ice-cold acetonitrile and kept on ice.

Compound: OC[C@H]1O[C@H](O[C@H]2O[C@H](CO)[C@@H](O)[C@H](O)[C@H]2F)[C@H](O)[C@@H](O)[C@@H]1O [[^19F]FDT]
- degradation by trehalase [1]: little or no degradation
- degradation by trehalase (Figure S5, released glucose) ([1]; pH 5.7, 37 °C, 60 minutes): 0
- degradation in plasma / in vivo [2]: no detectable degradation
- degradation in plasma / in vivo ([2]; listed as [19F]FDT): no degradation
- degradation in plasma / in vivo [3]: no detectable degradation
- degradation in plasma / in vivo ([3]; listed as [19F]FDT): no degradation
- % remaining [4]: > 50%
